Non-standard residues stand in square brackets, D forms with d. Residues, ends and D or L forms follow the SMILES beside them. *: point of attachment. Palmitoyl = CCCCCCCCCCCCCCCC(=O)*
What was measured:
[1] = chemical penetration enhancers, cited from earlier work; for Solubility: solvent and source not given; for LogP: source not given
[2] = In vitro skin permeation testing, Franz type diffusion cells; format: in vitro ADME; conditions: 5% (w/v) in PG, human epidermis, Franz cell, 32 °C, 24 h
[3] = Peptide human skin retention after 24 h; format: in vitro ADME
melanin = conditions: 16 weeks of twice daily treatment; reference not given; cited from earlier work
mushroom tyrosinase = conditions: cited from earlier work
human tyrosinase = conditions: cited from earlier work

For CC12CCC(CC1=O)C2(C)C (centres unmarked) [Camphor], the Solubility [1] is listed as 1.1 mg/mL and the LogP [1] is listed as 2.1 ± 0.3.

In the case of CC1CCC(C(C)C)C(O)C1 (centres unmarked) [Menthol], the Solubility [1] is given as 1.5 mg/mL and the LogP [1] is given as 3.2 ± 0.2.

For CCCCCCCC/C=C\CCCCCCCC(=O)O [Oleic acid], the Solubility [1] is listed as 0.002 mg/mL and the LogP [1] is listed as 7.4 ± 0.2.

For CCCCCCCCCCCCCCCC(=O)N[C@@H](Cc1ccc(O)cc1)C(=O)N[C@@H](CCCNC(=N)N)C(=O)N[C@@H](CO)C(=O)N[C@@H](CCCNC(=N)N)C(=O)N[C@@H](CCCCN)C(=O)N[C@H](Cc1ccc(O)cc1)C(=O)N[C@@H](CO)C(=O)N[C@@H](CO)C(=O)N[C@@H](Cc1c[nH]c2ccccc12)C(=O)N[C@@H](Cc1ccc(O)cc1)C(N)=O [Palm-peptide] (Palmitoyl-YRSRK[dY]SSWY-NH2), the “Effect of CPE on skin permeation” value ([2]; menthol) was “enhancing effect”, the “Effect of CPE on skin permeation” value ([2]; oleic acid) was “inhibitory effects” and the “Percentage of peptide retained inside skin (dose-normalised)” value ([3]; MN patch, human epidermis, 24 h) was under 0.1%. The “Highest peptide concentration in skin” value ([3]; estimated from skin retention after 24 h) was 9.0 µg/g.

In the case of “YRSRKYSSWY [Native peptide, decapeptide-12]”, the “Skin retention of peptide after 24 h” value ([3]; MN patch, human epidermis, Franz cell, 32 °C, 24 h, HPLC-UV 280 nm, triplicates) is listed as “No peptides were detected”, the “Efficacy in reducing content of melanin” value (melanin) is listed as “more than 50%” and the “Competitive inhibition compared with hydroquinone” value (mushroom tyrosinase) is listed as “stronger competitive inhibition effect”. The “Competitive inhibition compared with hydroquinone” value (human tyrosinase) was “stronger competitive inhibition effect”.

Source: publication doi:10.1101/2020.10.07.312850v1 (bioRxiv, 2020)
